Data: patent EP0093484A2, “Antibacterial monic acid derivatives” (BEECHAM GROUP PLC, priority 1982, dated 1983)
In brackets after ≈: the same amount, converted by molar mass.

What was measured:
M. suipneumoniae NB12 = experiment: Anti-mycoplasmal activity, MIC in Friis broth agarose; assay type: cell-based; conditions: Mesomycoplasma hyopneumoniae, 144 h, Friis broth solidified with 0.9% agarose, 6 days incubation at 37°C, read-out: MIC
M. suipneumoniae JF 435 = experiment: as above; assay type: cell-based; conditions: Mesomycoplasma hyopneumoniae, JF435, 144 h, Friis broth solidified with 0.9% agarose, 6 days incubation at 37°C, read-out: MIC
M. suipneumoniae Str. 11 = experiment: as above; assay type: cell-based; conditions: Mesomycoplasma hyopneumoniae, 144 h, Friis broth solidified with 0.9% agarose, 6 days incubation at 37°C, read-out: MIC
[1] = system: M. suipneumoniae J2206/183b; experiment: as above; assay type: cell-based; conditions: Mesomycoplasma hyopneumoniae, 144 h, Friis broth solidified with 0.9% agarose, 6 days incubation at 37°C, read-out: MIC
M. suipneumoniae MS16 = experiment: as above; assay type: cell-based; conditions: Mesomycoplasma hyopneumoniae, 144 h, Friis broth solidified with 0.9% agarose, 6 days incubation at 37°C, read-out: MIC
[2] = system: M. suipneumoniae ATCC 25095; experiment: as above; assay type: cell-based; conditions: Mesomycoplasma hyopneumoniae, ATCC25095, 144 h, Friis broth solidified with 0.9% agarose, 6 days incubation at 37°C, read-out: MIC
M. hyorhinis ATCC 23234 = experiment: as above; assay type: cell-based; conditions: Mesomycoplasma hyorhinis, ATCC23234, 144 h, Friis broth solidified with 0.9% agarose, 6 days incubation at 37°C, read-out: MIC
M. hyorhinis ATCC 25021 = experiment: as above; assay type: cell-based; conditions: Mesomycoplasma hyorhinis, ATCC25021, 144 h, Friis broth solidified with 0.9% agarose, 6 days incubation at 37°C, read-out: MIC
M. bovis NCTC 10131 = experiment: microbe, parasite or virus in culture; assay type: cell-based; conditions: NCTC10131, 144 h
[3] = system: M. bovigenitalium ATCC 14173; experiment: Anti-mycoplasmal activity, MIC in Friis broth agarose; assay type: cell-based; conditions: 144 h, Friis broth solidified with 0.9% agarose, 6 days incubation at 37°C, read-out: MIC
M. dispar NCTC 10125 = experiment: as above; assay type: cell-based; conditions: 144 h, Friis broth solidified with 0.9% agarose, 6 days incubation at 37°C, read-out: MIC
M. gallisepticum S6 = experiment: as above; assay type: cell-based; conditions: Mycoplasmoides gallisepticum, 144 h, Friis broth solidified with 0.9% agarose, 6 days incubation at 37°C, read-out: MIC
E. coli NCTC 10418 [4] = experiment: Human bacteria, MIC by serial dilution in nutrient agar; assay type: cell-based; conditions: Escherichia coli, NCTC10418; E. coli NCTC 10418 (human panel); nutrient agar with 5% chocolated horse blood; 18 hours at 37°C; read-out: MIC
E. coli ESS = experiment: as above; assay type: cell-based; conditions: Escherichia coli, nutrient agar with 5% chocolated horse blood, 18 hours at 37°C, read-out: MIC
P. mirabilis 889 = experiment: as above; assay type: cell-based; conditions: Proteus mirabilis, nutrient agar with 5% chocolated horse blood, 18 hours at 37°C, read-out: MIC
K. aerogenes A = experiment: as above; assay type: cell-based; conditions: Klebsiella aerogenes, nutrient agar with 5% chocolated horse blood, 18 hours at 37°C, read-out: MIC
[5] = system: Pasteurella multocida 1633; experiment: as above; assay type: cell-based; conditions: nutrient agar with 5% chocolated horse blood, 18 hours at 37°C, read-out: MIC
[6] = system: Haemophilus influenzae Q1; experiment: as above; assay type: cell-based; conditions: nutrient agar with 5% chocolated horse blood, 18 hours at 37°C, read-out: MIC
[7] = system: Haemophilus influenzae Wy21; experiment: as above; assay type: cell-based; conditions: nutrient agar with 5% chocolated horse blood, 18 hours at 37°C, read-out: MIC
[8] = system: Neisseria catarrhalis 1502; experiment: as above; assay type: cell-based; conditions: nutrient agar with 5% chocolated horse blood, 18 hours at 37°C, read-out: MIC
Bacillus subtilis 6633 = experiment: as above; assay type: cell-based; conditions: nutrient agar with 5% chocolated horse blood, 18 hours at 37°C, read-out: MIC
[9] = system: Corynebacterium xerosis 9755; experiment: as above; assay type: cell-based; conditions: nutrient agar with 5% chocolated horse blood, 18 hours at 37°C, read-out: MIC
Sarcina lutea 8340 = experiment: as above; assay type: cell-based; conditions: Micrococcus luteus, nutrient agar with 5% chocolated horse blood, 18 hours at 37°C, read-out: MIC
Staph. aureus Russell = experiment: as above; assay type: cell-based; conditions: Staphylococcus aureus, nutrient agar with 5% chocolated horse blood, 18 hours at 37°C, read-out: MIC
Staph. aureus W2827 = experiment: as above; assay type: cell-based; conditions: Staphylococcus aureus, nutrient agar with 5% chocolated horse blood, 18 hours at 37°C, read-out: MIC
Strep. faecalis I = experiment: as above; assay type: cell-based; conditions: Enterococcus faecalis, nutrient agar with 5% chocolated horse blood, 18 hours at 37°C, read-out: MIC
Strep. pneumoniae CN33 = experiment: as above; assay type: cell-based; conditions: Streptococcus pneumoniae, nutrient agar with 5% chocolated horse blood, 18 hours at 37°C, read-out: MIC
E. coli NCTC 10418 [10] = experiment: Veterinary bacteria, MIC by two fold serial dilution in agar; conditions: Escherichia coli, NCTC10418, 18 h
Procedure: (§1) The activity of the compounds of the Examples against various organisms important in veterinary infections was determined using two fold serial dilutions in Diagnostic Sensitivity Test Agar inoculated with 10^4 organisms.

E. coli E1 = experiment: as above; conditions: Escherichia coli, E1, 18 h
Procedure: as §1

S. dublin S7 = experiment: as above; conditions: Salmonella enterica, S7, 18 h
Procedure: as §1

S. typhimurium S18 = experiment: as above; conditions: Salmonella enterica, TYPHIMURIUM, 18 h
Procedure: as §1

Bord. bronchiseptica BO9 = experiment: as above; conditions: Bordetella bronchiseptica, BO9, 18 h
Procedure: as §1

Past. multocida PA1 = experiment: as above; conditions: Pasteurella multocida, PA1, 18 h
Procedure: as §1

Past. multocida PA2 = experiment: as above; conditions: Pasteurella multocida, PA2, 18 h
Procedure: as §1

Past. haemolytica PA5 = experiment: as above; conditions: Mannheimia haemolytica, PA5, 18 h
Procedure: as §1

[11] = system: Erysipelothrix rhusiopathiae NCTC 8163; experiment: as above; conditions: Erysipelothrix rhusiopathiae, NCTC8163, 18 h
Procedure: as §1

[12] = system: Corynebacterium pyogenes CY1; experiment: as above; conditions: CY1, 18 h
Procedure: as §1

[13] = system: Staph. aureus B4 (pen. resistant); experiment: as above; conditions: Staphylococcus aureus, 18 h
Procedure: as §1

Strep. dysgalactiae SPD1 = experiment: as above; conditions: Streptococcus dysgalactiae, SPD1, 18 h
Procedure: as §1

[14] = system: Strep. pyogenes R80/421-A; experiment: Human bacteria, MIC by serial dilution in nutrient agar; assay type: cell-based; conditions: Streptococcus pyogenes, nutrient agar with 5% chocolated horse blood, 18 hours at 37°C, read-out: MIC
Strep. spp. 64/848-C = experiment: as above; assay type: cell-based; conditions: nutrient agar with 5% chocolated horse blood, 18 hours at 37°C, read-out: MIC

| Compound | MIC (M. suipneumoniae NB12) | MIC (M. suipneumoniae JF 435) | MIC (M. suipneumoniae Str. 11) | MIC [1] | MIC (M. suipneumoniae MS16) | MIC [2] | MIC (M. hyorhinis ATCC 23234) | MIC (M. hyorhinis ATCC 25021) | MIC (M. bovis NCTC 10131) | MIC [3] | MIC (M. dispar NCTC 10125) | MIC (M. gallisepticum S6) | MIC (E. coli NCTC 10418 [4]) | MIC (E. coli ESS) | MIC (P. mirabilis 889) | MIC (K. aerogenes A) | MIC [5] | MIC [7] | MIC [8] | MIC (Bacillus subtilis 6633) | further results |
| --- | --- | --- | --- | --- | --- | --- | --- | --- | --- | --- | --- | --- | --- | --- | --- | --- | --- | --- | --- | --- | --- |
| CC(=CC(=O)OCc1cccc(S(C)(=O)=O)c1)CC1OCC(CC2OC2C(C)C(C)O)C(O)C1O (stereo not drawn) [Example 7, m-Methylsulfonylbenzyl monate A] | 0.5 µg/mL (≈ 0.975 µM) | 1 µg/mL (≈ 1.95 µM) | 0.5 µg/mL (≈ 0.975 µM) | 1 µg/mL (≈ 1.95 µM) | 0.5 µg/mL (≈ 0.975 µM) | 0.5 µg/mL (≈ 0.975 µM) | 0.5 µg/mL (≈ 0.975 µM) | 0.5 µg/mL (≈ 0.975 µM) | 0.025 µg/mL (≈ 0.0488 µM) | 0.05 µg/mL (≈ 0.0975 µM) | 0.25 µg/mL (≈ 0.488 µM) | 5 µg/mL (≈ 9.75 µM) | > 100 µg/mL | 2.5 µg/mL (≈ 4.88 µM) | > 100 µg/mL | > 100 µg/mL | 2.5 µg/mL (≈ 4.88 µM) | 0.5 µg/mL (≈ 0.975 µM) | 1 µg/mL (≈ 1.95 µM) | 2.5 µg/mL (≈ 4.88 µM) | MIC [6]: 0.5 µg/mL (≈ 0.975 µM); MIC [9]: > 100 µg/mL; MIC (Sarcina lutea 8340): > 100 µg/mL; MIC (Staph. aureus Russell): 5 µg/mL (≈ 9.75 µM); MIC (Staph. aureus W2827): 5 µg/mL (≈ 9.75 µM); MIC (Strep. faecalis I): > 100 µg/mL; MIC (Strep. pneumoniae CN33): 1 µg/mL (≈ 1.95 µM); MIC (E. coli NCTC 10418 [10]): > 80 µg/mL; MIC (E. coli E1): > 80 µg/mL; MIC (S. dublin S7): > 80 µg/mL; MIC (S. typhimurium S18): > 80 µg/mL; MIC (Bord. bronchiseptica BO9): 20 µg/mL (≈ 39 µM); MIC (Past. multocida PA1): 2.5 µg/mL (≈ 4.88 µM); MIC (Past. multocida PA2): 1.25 µg/mL (≈ 2.44 µM); MIC (Past. haemolytica PA5): 10 µg/mL (≈ 19.5 µM); MIC [11]: > 80 µg/mL; MIC [12]: > 80 µg/mL; MIC [13]: 2.5 µg/mL (≈ 4.88 µM); MIC (Strep. dysgalactiae SPD1): 1.25 µg/mL (≈ 2.44 µM) |
| CC(=CC(=O)OC(C)c1ccc(S(C)(=O)=O)cc1)CC1OCC(CC2OC2C(C)C(C)O)C(O)C1O (stereo not drawn) [Example 9, 1-(p-Methylsulfonylphenyl)ethyl monate A] | 1 µg/mL (≈ 1.9 µM) | 1 µg/mL (≈ 1.9 µM) | 0.5 µg/mL (≈ 0.949 µM) | 1 µg/mL (≈ 1.9 µM) | 0.5 µg/mL (≈ 0.949 µM) | 0.5 µg/mL (≈ 0.949 µM) | 0.5 µg/mL (≈ 0.949 µM) | 0.5 µg/mL (≈ 0.949 µM) | < 0.01 µg/mL | 0.05 µg/mL (≈ 0.0949 µM) | 0.05 µg/mL (≈ 0.0949 µM) | 10 µg/mL (≈ 19 µM) | > 128 µg/mL | 4 µg/mL (≈ 7.6 µM) | > 128 µg/mL | > 128 µg/mL | 8 µg/mL (≈ 15.2 µM) | 0.5 µg/mL (≈ 0.949 µM) | 2 µg/mL (≈ 3.8 µM) | 1 µg/mL (≈ 1.9 µM) | MIC [9]: > 128 µg/mL; MIC (Staph. aureus Russell): 16 µg/mL (≈ 30.4 µM); MIC (Staph. aureus W2827): 16 µg/mL (≈ 30.4 µM); MIC (Strep. faecalis I): > 128 µg/mL; MIC [14]: 1 µg/mL (≈ 1.9 µM); MIC (Strep. spp. 64/848-C): 4 µg/mL (≈ 7.6 µM); MIC (Strep. pneumoniae CN33): 4 µg/mL (≈ 7.6 µM); MIC (E. coli NCTC 10418 [10]): > 80 µg/mL; MIC (E. coli E1): > 80 µg/mL; MIC (S. dublin S7): > 80 µg/mL; MIC (S. typhimurium S18): > 80 µg/mL; MIC (Bord. bronchiseptica BO9): 80 µg/mL (≈ 152 µM); MIC (Past. multocida PA1): 5 µg/mL (≈ 9.49 µM); MIC (Past. multocida PA2): 2.5 µg/mL (≈ 4.75 µM); MIC (Past. haemolytica PA5): 40 µg/mL (≈ 76 µM); MIC [11]: 80 µg/mL (≈ 152 µM); MIC [12]: > 80 µg/mL; MIC [13]: 5 µg/mL (≈ 9.49 µM); MIC (Strep. dysgalactiae SPD1): 0.625 µg/mL (≈ 1.19 µM) |
